# Measured values from PubChem BioAssay AID1845195 (Molecular Pharmacology Branch, DTP, NCI, 2023).
# Test system: 156681-154-R-J1 tumor spheroid viability
# Experiment: Anticancer human tumor 156681-154-R-J1 patient-derived melanoma cell line growth inhibition
# Details: spheroids with HUVEC and MSC; for IC50: curve of first compound; for viability, T/C: stronger effect = lower value
# Method in brief: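 Complex tumor spheroids combined malignant cells with endothelial cells and mesenchymal stem cells. DNA-damaging drugs and DNA repair inhibitors were tested alone and in combination, at half-log dilutions down from clinical Cmax (top 10 microM if Cmax unknown), 0.25% DMSO final.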
# [1] = second compound 1 µM, first compound 0.00949 µM
# [2] = second compound 1 µM, first compound 0.03 µM
# [3] = second compound 1 µM, first compound 0.0949 µM
# [4] = second compound 1 µM, first compound 0.3 µM
# [5] = second compound 1 µM, first compound 0.949 µM
# [6] = second compound 1 µM, first compound 3 µM
# [7] = second compound 3.16 µM, first compound 0.00949 µM
# [8] = second compound 3.16 µM, first compound 0.03 µM
# [9] = second compound 3.16 µM, first compound 0.0949 µM
# [10] = second compound 3.16 µM, first compound 0.3 µM
# [11] = second compound 3.16 µM, first compound 0.949 µM
# [12] = second compound 3.16 µM, first compound 3 µM
# [13] = second compound 10 µM, first compound 0.00949 µM
# [14] = second compound 10 µM, first compound 0.03 µM
# [15] = second compound 10 µM, first compound 0.0949 µM
# [16] = second compound 10 µM, first compound 0.3 µM
# [17] = second compound 10 µM, first compound 0.949 µM
# [18] = second compound 10 µM, first compound 3 µM
# [19] = second compound 31.6 µM, first compound 0.00949 µM
# [20] = second compound 31.6 µM, first compound 0.03 µM
# [21] = second compound 31.6 µM, first compound 0.0949 µM
# [22] = second compound 31.6 µM, first compound 0.3 µM
# [23] = second compound 31.6 µM, first compound 0.949 µM
# [24] = second compound 31.6 µM, first compound 3 µM
# [25] = second compound 100 µM, first compound 0.00949 µM
# [26] = second compound 100 µM, first compound 0.03 µM
# [27] = second compound 100 µM, first compound 0.0949 µM
# [28] = second compound 100 µM, first compound 0.3 µM
# [29] = second compound 100 µM, first compound 0.949 µM
# [30] = second compound 100 µM, first compound 3 µM
# 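Further: spheroids exposed to compounds for 7 days before readout.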
# 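Wherever viability, T/C is given: percent of vehicle control viability where 100% = DMSO-treated spheroids.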
SMILES,IC50 (second compound 1 µM),IC50 (second compound 3.16 µM),IC50 (second compound 10 µM),IC50 (second compound 31.6 µM),IC50 (second compound 100 µM),"viability, T/C [3]","viability, T/C [4]","viability, T/C [5]","viability, T/C [6]","viability, T/C [9]","viability, T/C [10]","viability, T/C [11]","viability, T/C [12]","viability, T/C [15]","viability, T/C [16]","viability, T/C [17]","viability, T/C [18]","viability, T/C [21]","viability, T/C [22]","viability, T/C [23]",other results
CNCc1ccc(-c2cc(-c3nc(-c4ccc(S(=O)(=O)C(C)C)cc4)cnc3N)on2)cc1 + Cn1nnc2c(C(N)=O)ncn2c1=O,1230 nM,915 nM,717 nM,494 nM,81.6 nM,98.8%,75.5%,62.3%,19%,90%,72.6%,50.7%,16.8%,80.7%,64.8%,46%,11.1%,59.5%,59.8%,38%,"viability, T/C [1]: 107%; viability, T/C [2]: 100%; viability, T/C [7]: 88.2%; viability, T/C [8]: 100%; viability, T/C [13]: 93.6%; viability, T/C [14]: 73.9%; viability, T/C [19]: 63.5%; viability, T/C [20]: 65.1%; viability, T/C [24]: 5.46%; viability, T/C [25]: 54.2%; viability, T/C [26]: 53%; viability, T/C [27]: 54.1%; viability, T/C [28]: 34.6%; viability, T/C [29]: 22.1%; viability, T/C [30]: 1.01%"
Cn1ncnc1[C@H]1c2n[nH]c(=O)c3cc(F)cc(c23)N[C@@H]1c1ccc(F)cc1 + Cn1nnc2c(C(N)=O)ncn2c1=O,971 nM,591 nM,270 nM,< 9.49 nM,< 9.49 nM,75%,72.7%,50.5%,16.6%,71%,64.1%,40%,15.2%,54.6%,50%,33.7%,13.6%,34.9%,29.6%,17%,"viability, T/C [1]: 78.4%; viability, T/C [2]: 83.7%; viability, T/C [7]: 69%; viability, T/C [8]: 74.4%; viability, T/C [13]: 81.1%; viability, T/C [14]: 88.4%; viability, T/C [19]: 44.4%; viability, T/C [20]: 35.4%; viability, T/C [24]: 18%; viability, T/C [25]: 16.3%; viability, T/C [26]: 14.4%; viability, T/C [27]: 12.2%; viability, T/C [28]: 11.3%; viability, T/C [29]: 14%; viability, T/C [30]: 14.4%"
O=C(c1cc(Cc2n[nH]c(=O)c3ccccc23)ccc1F)N1CCN(C(=O)C2CC2)CC1 + Cn1nnc2c(C(N)=O)ncn2c1=O,> 30000 nM,18200 nM,14700 nM,1200 nM,< 94.9 nM,92.1%,74.6%,97.5%,80.2%,81.1%,86.4%,78.3%,74.2%,85.2%,81.3%,70.5%,68.5%,69%,63.3%,48.4%,"viability, T/C (second compound 1 µM, first compound 9.49 µM): 66.5%; viability, T/C (second compound 1 µM, first compound 30 µM): 50.3%; viability, T/C (second compound 3.16 µM, first compound 9.49 µM): 52.1%; viability, T/C (second compound 3.16 µM, first compound 30 µM): 48.3%; viability, T/C (second compound 10 µM, first compound 9.49 µM): 55.6%; viability, T/C (second compound 10 µM, first compound 30 µM): 40.9%; viability, T/C [24]: 44.5%; viability, T/C (second compound 31.6 µM, first compound 9.49 µM): 35.6%; viability, T/C (second compound 31.6 µM, first compound 30 µM): 27.4%; viability, T/C [27]: 36.8%; viability, T/C [28]: 34.4%; viability, T/C [29]: 27.4%; viability, T/C [30]: 22.6%; viability, T/C (second compound 100 µM, first compound 9.49 µM): 15.1%; viability, T/C (second compound 100 µM, first compound 30 µM): 21.6%"
